Source: patent US20090118274A1, “MONOCYCLIC AMINOPROPYL TETRAHYDRO-PYRAZOLO-PYRIDINE MODULATORS OF CATHEPSIN S” (priority 2007, published 2009)
Read-outs that look alike come from different tables or passages of the source.

Molecular target: T1, Recombinant human cathepsin S (CatS) (Homo sapiens, UniProt P25774)
T1 construct: made in house
Assay: Recombinant human cathepsin S (CatS) fluorogenic substrate inhibition assay
Format: biochemical
Description: Recombinant human cathepsin S (CatS) was expressed in the baculovirus system and purified in one step with a thiopropyl-sepharose column. […] The assay is run in 150 mM sodium acetate pH 5.0 containing 1.5 mM DTT and 150 mM NaCl. […] Measurements are taken every min for 20 min. The rate is calculated from the slope of the increase in fluorescence and the percent inhibition is calculated from this.

[1] = average of results obtained, substrate Z-Valine-Valine-Arginine-AMC 10 μM, pH 5.0, read-out: CatS IC50

T1 sequence (P25774 115-331): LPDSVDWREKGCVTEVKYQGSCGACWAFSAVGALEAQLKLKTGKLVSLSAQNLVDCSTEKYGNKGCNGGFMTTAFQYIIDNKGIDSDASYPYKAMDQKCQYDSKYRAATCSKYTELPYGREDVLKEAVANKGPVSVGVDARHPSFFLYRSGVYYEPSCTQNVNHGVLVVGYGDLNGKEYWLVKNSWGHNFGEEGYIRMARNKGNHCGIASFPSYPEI

| SMILES | IC50 [1] | IC50 |
| --- | --- | --- |
| CS(=O)(=O)N1CCc2c(c(-c3ccc(C(F)(F)F)c(CNC(=O)c4ccc(F)cc4F)c3)nn2CC(O)CN2CCCC2)C1 (centres unmarked) [Example 101, 2,4-Difluoro-N-{5-[1-(2-hydroxy-3-pyrrolidin-1-yl-propyl)-5-methanesulfonyl-4,5,6,7-tetrahydro-1H-pyrazolo[4,3-c]pyridin-3-yl]-2-trifluoromethyl-benzyl}-benzamide] | 440 nM |  |
| CC(=O)Nc1ccc(C(=O)NCc2cc(-c3nn(CC(O)CN4CCCC4)c4c3CN(S(C)(=O)=O)CC4)ccc2C(F)(F)F)cc1 (centres unmarked) [Example 240, 4-Acetylamino-N-{5-[1-(2-hydroxy-3-pyrrolidin-1-yl-propyl)-5-methanesulfonyl-4,5,6,7-tetrahydro-1H-pyrazolo[4,3-c]pyridin-3-yl]-2-trifluoromethyl-benzyl}-benzamide] | 970 nM |  |
| CS(=O)(=O)N1CCc2c(c(-c3ccc(C(F)(F)F)c(CNc4nc5ccccc5o4)c3)nn2CC(O)CN2CCCC2)C1 (centres unmarked) [Example 68, 1-{3-[3-(Benzooxazol-2-ylaminomethyl)-4-trifluoromethyl-phenyl]-5-methanesulfonyl-4,5,6,7-tetrahydro-pyrazolo[4,3-c]pyridin-1-yl}-3-pyrrolidin-1-yl-propan-2-ol] | 750 nM |  |
| CS(=O)(=O)N1CCc2c(c(-c3ccc(C(F)(F)F)c(CNC(=O)c4ccc5ccccc5c4)c3)nn2CC(O)CN2CCCC2)C1 (centres unmarked) [Example 64, Naphthalene-2-carboxylic acid 5-[1-(2-hydroxy-3-pyrrolidin-1-yl-propyl)-5-methanesulfonyl-4,5,6,7-tetrahydro-1H-pyrazolo[4,3-c]pyridin-3-yl]-2-trifluoromethyl-benzylamide] | 370 nM |  |
| CS(=O)(=O)N1CCc2c(c(-c3ccc(Cl)c(CC(=O)Nc4ccccc4)c3)nn2CCCN2CCOCC2)C1 [Example 291, 2-{2-Chloro-5-[5-methanesulfonyl-1-(3-morpholin-4-yl-propyl)-4,5,6,7-tetrahydro-1H-pyrazolo[4,3-c]pyridin-3-yl]-phenyl}-N-phenyl-acetamide] | 2850 nM |  |
| CS(=O)(=O)N1CCc2c(c(-c3ccc(C(F)(F)F)c(CNC(=O)c4ccc(F)cc4)c3)nn2CC(O)CN2CCC(C(N)=O)CC2)C1 (centres unmarked) [Example 18, 1-[3-(3-[3-[(4-Fluoro-benzoylamino)-methyl]-4-trifluoromethyl-phenyl]-5-methanesulfonyl-4,5,6,7-tetrahydro-pyrazolo[4,3-c]pyridin-1-yl)-2-hydroxy-propyl]-piperidine-4-carboxylic acid amide] |  | 70 nM |
| CS(=O)(=O)N1CCc2c(c(-c3ccc(Cl)c(COCc4ccccc4)c3)nn2CCCN2CCCC2)C1 [Example 71, 3-(3-Benzyloxymethyl-4-chloro-phenyl)-5-methanesulfonyl-1-(3-pyrrolidin-1-yl-propyl)-4,5,6,7-tetrahydro-1H-pyrazolo[4,3-c]pyridine] | 1950 nM |  |
| CS(=O)(=O)N1CCc2c(c(-c3ccc(C(F)(F)F)c(CNC(=O)c4cccc(O)c4)c3)nn2CC(O)CN2CCCC2)C1 (centres unmarked) [Example 58, 3-Hydroxy-N-{5-[1-(2-hydroxy-3-pyrrolidin-1-yl-propyl)-5-methanesulfonyl-4,5,6,7-tetrahydro-1H-pyrazolo[4,3-c]pyridin-3-yl]-2-trifluoromethyl-benzyl}-benzamide] | 420 nM |  |
| CS(=O)(=O)N1CCc2c(c(-c3ccc(C(F)(F)F)c(CNc4ncccn4)c3)nn2CC(O)CN2CCCC2)C1 (centres unmarked) [Example 65, 1-{5-Methanesulfonyl-3-[3-(pyrimidin-2-ylaminomethyl)-4-trifluoromethyl-phenyl]-4,5,6,7-tetrahydro-pyrazolo[4,3-c]pyridin-1-yl}-3-pyrrolidin-1-yl-propan-2-ol] | 16600 nM |  |
| CS(=O)(=O)NCc1cc(-c2nn(CC(O)CN3CCCC3)c3c2CN(S(C)(=O)=O)CC3)ccc1C(F)(F)F (centres unmarked) [Example 195, N-{5-[1-(2-Hydroxy-3-pyrrolidin-1-yl-propyl)-5-methanesulfonyl-4,5,6,7-tetrahydro-1H-pyrazolo[4,3-c]pyridin-3-yl]-2-trifluoromethyl-benzyl}-methanesulfonamide] | 6500 nM |  |

More lines, in order of falling IC50 [1], values ahead:

| IC50 [1] | IC50 | SMILES |
| --- | --- | --- |
| 370 nM |  | CS(=O)(=O)N1CCc2c(c(-c3ccc(C(F)(F)F)c(CNC(=O)c4ccccc4F)c3)nn2CC(O)CN2CCCC2)C1 (centres unmarked) [Example 161, 2-Fluoro-N-{5-[1-(2-hydroxy-3-pyrrolidin-1-yl-propyl)-5-methanesulfonyl-4,5,6,7-tetrahydro-1H-pyrazolo[4,3-c]pyridin-3-yl]-2-trifluoromethyl-benzyl}-benzamide] |
| 360 nM |  | CN(C)C1CCN(CC(O)Cn2nc(-c3ccc(C(F)(F)F)c(CNC(=O)c4ccc(F)cc4)c3)c3c2CCN(S(C)(=O)=O)C3)C1 (centres unmarked) [Example 26, N-(5-{1-[3-(3-Dimethylamino-pyrrolidin-1-yl)-2-hydroxy-propyl]-5-methanesulfonyl-4,5,6,7-tetrahydro-1H-pyrazolo[4,3-c]pyridin-3-yl}-2-trifluoromethyl-benzyl)-4-fluoro-benzamide] |
| 320 nM |  | CS(=O)(=O)N1CCc2c(c(-c3ccc(C(F)(F)F)c(CNC(=O)C4CCCCCC4)c3)nn2CC(O)CN2CCCC2)C1 (centres unmarked) [Example 160, Cycloheptanecarboxylic acid 5-[1-(2-hydroxy-3-pyrrolidin-1-yl-propyl)-5-methanesulfonyl-4,5,6,7-tetrahydro-1H-pyrazolo[4,3-c]pyridin-3-yl]-2-trifluoromethyl-benzylamide] |
| 300 nM |  | CC(=O)N1CCN(CC(O)Cn2nc(-c3ccc(C(F)(F)F)c(CNC(=O)c4ccc(F)cc4)c3)c3c2CCN(S(C)(=O)=O)C3)CC1 (centres unmarked) [Example 21, N-(5-{1-[3-(4-Acetyl-piperazin-1-yl)-2-hydroxy-propyl]-5-methanesulfonyl-4,5,6,7-tetrahydro-1H-pyrazolo[4,3-c]pyridin-3-yl}-2-trifluoromethyl-benzyl)-4-fluoro-benzamide] |
| 290 nM |  | CS(=O)(=O)N1CCc2c(c(-c3ccc(C(F)(F)F)c(CNC(=O)c4cccc(C#N)c4)c3)nn2CC(O)CN2CCCC2)C1 (centres unmarked) [Example 159, 3-Cyano-N-{5-[1-(2-hydroxy-3-pyrrolidin-1-yl-propyl)-5-methanesulfonyl-4,5,6,7-tetrahydro-1H-pyrazolo[4,3-c]pyridin-3-yl]-2-trifluoromethyl-benzyl}-benzamide] |
| 240 nM |  | CS(=O)(=O)N1CCc2c(c(-c3ccc(C(F)(F)F)c(CNC(=O)c4ccc(F)cc4)c3)nn2CC(O)CN2CCC[C@H]2C(N)=O)C1 (stereo partly drawn) [Example 97, (S)-1-[3-(3-{3-[(4-Fluoro-benzoylamino)-methyl]-4-trifluoromethyl-phenyl}-5-methanesulfonyl-4,5,6,7-tetrahydro-pyrazolo[4,3-c]pyridin-1-yl)-2-hydroxy-propyl]-pyrrolidine-2-carboxylic acid amide] |
| 210 nM |  | CS(=O)(=O)N1CCc2c(c(-c3ccc(C(F)(F)F)c(CNC(=O)c4ccc(F)c(F)c4)c3)nn2CC(O)CN2CCCC2)C1 (centres unmarked) [Example 60, 3,4-Difluoro-N-{5-[1-(2-hydroxy-3-pyrrolidin-1-yl-propyl)-5-methanesulfonyl-4,5,6,7-tetrahydro-1H-pyrazolo[4,3-c]pyridin-3-yl]-2-trifluoromethyl-benzyl}-benzamide] |
| 170 nM |  | CC(=O)NC1CCN(CC(O)Cn2nc(-c3ccc(C(F)(F)F)c(CNC(=O)c4ccc(F)cc4)c3)c3c2CCN(S(C)(=O)=O)C3)C1 (centres unmarked) [Example 93, N-(5-{1-[3-(3-Acetylamino-pyrrolidin-1-yl)-2-hydroxy-propyl]-5-methanesulfonyl-4,5,6,7-tetrahydro-1H-pyrazolo[4,3-c]pyridin-3-yl}-2-trifluoromethyl-benzyl)-4-fluoro-benzamide] |
| 90 nM |  | CS(=O)(=O)N1CCc2c(c(-c3ccc(Cl)c(CNC(=O)c4ccc(F)cc4)c3)nn2CC(O)CN2CCC(F)(F)CC2)C1 (centres unmarked) [Example 10, N-(2-Chloro-5-{1-[3-(4,4-difluoro-piperidin-1-yl)-2-hydroxy-propyl]-5-methanesulfonyl-4,5,6,7-tetrahydro-1H-pyrazolo[4,3-c]pyridin-3-yl}-benzyl)-4-fluoro-benzamide] |
| 90 nM |  | CS(=O)(=O)N1CCc2c(c(-c3ccc(C(F)(F)F)c(CNC(=O)c4ccc(O)cc4)c3)nn2CCCN2CCC3(CCNC3=O)CC2)C1 [Example 142, 4-Hydroxy-N-(5-{5-methanesulfonyl-1-[3-(1-oxo-2,8-diaza-spiro[4.5]dec-8-yl)-propyl]-4,5,6,7-tetrahydro-1H-pyrazolo[4,3-c]pyridin-3-yl}-2-trifluoromethyl-benzyl)-benzamide] |
| 90 nM |  | CC(C)=CC(=O)NCc1cc(-c2nn(CC(O)CN3CCC(O)CC3)c3c2CN(S(C)(=O)=O)CC3)ccc1C(F)(F)F (centres unmarked) [Example 154, 3-Methyl-but-2-enoic acid 5-{1-[2-hydroxy-3-(4-hydroxy-piperidin-1-yl)-propyl]-5-methanesulfonyl-4,5,6,7-tetrahydro-1H-pyrazolo[4,3-c]pyridin-3-yl}-2-trifluoromethyl-benzylamide] |
| 30 nM |  | CC(C)=CC(=O)NCc1cc(-c2nn(CC(O)CN3CCC(C(C)(C)C)CC3)c3c2CN(S(C)(=O)=O)CC3)ccc1C(F)(F)F (centres unmarked) [Example 273, 3-Methyl-but-2-enoic acid 5-{1-[3-(4-tert-butyl-piperidin-1-yl)-2-hydroxy-propyl]-5-methanesulfonyl-4,5,6,7-tetrahydro-1H-pyrazolo[4,3-c]pyridin-3-yl}-2-trifluoromethyl-benzylamide] |
| 20 nM |  | O=C(NCc1cc(-c2nn(CC(O)CN3CCC4(CCNC4=O)CC3)c3c2CN(C(=O)CO)CC3)ccc1C(F)(F)F)c1ccc(F)cc1 (centres unmarked) [Example 8, 4-Fluoro-N-(5-{5-(2-hydroxy-acetyl)-1-[2-hydroxy-3-(1-oxo-2,8-diazaspiro[4.5]dec-8-yl)-propyl]-4,5,6,7-tetrahydro-1H-pyrazolo[4,3-c]pyridin-3-yl}-2-trifluoromethyl-benzyl)-benzamide] |
